Results published in the supplement of paper PMC11451515.

Key:
Details in all cases: 48 h
SEM cells [1] = assay: cell viability relative to DMSO control; higher = less cytotoxic
In short: (§1)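 Library compounds in DMSO were pin-dosed in an 11-point threefold series (47 μM to 0.79 nM) onto leukemia cells in 1536-well plates (5 μl). Plates held 500 cells/well of NOMO1 or SEM or 1000 cells/well of P12-Ichikawa, each adapted for at least four passages in each medium. Luminescence was read with CellTiter-Glo One after 48 h at 37°C. Viability means the per-plate percentage relative to DMSO wells, using cell-free wells as background.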

NOMO1 [2] = assay: as above
In short: as §1

P12-Ichikawa [3] = assay: as above
In short: as §1

SEM cells [4] = assay: AUC of viability dose-response curve (% viability x log10 dose units); higher = less sensitive
In short: (§2)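 In 1536-well plates, leukemia cells adapted to each medium (500 or 1000 cells/well) were exposed for 48 h at 37°C to library compounds in DMSO across 11 threefold doses, 47 μM down to 0.79 nM. Viability was read by CellTiter-Glo One luminescence and normalised per plate to DMSO and cell-free wells. A four-parameter log-logistic fit over log10 doses was integrated by trapezoidal rule. This yielded the area under the curve, with over-full-viability curves scaled and quality-control failures dropped.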

NOMO1 [5] = assay: as above
In short: as §2

P12-Ichikawa [6] = assay: as above
In short: as §2

C[C@@]12C(=O)OC(=O)[C@@]1(C)C1CCC2O1
cell viability [%]
Details | NOMO1 [2] | P12-Ichikawa [3] | SEM cells [1]
HPLM + 10% dialyzed FBS, 0.000781 µM | 111 | 106 | 118
HPLM + 10% dialyzed FBS, 0.00234 µM | 109 | 103 | 103
HPLM + 10% dialyzed FBS, 0.00702 µM | 107 | 106 | 112
HPLM + 10% dialyzed FBS, 0.0211 µM | 116 | 112 | 112
HPLM + 10% dialyzed FBS, 0.0632 µM | 115 | 111 | 114
HPLM + 10% dialyzed FBS, 0.19 µM | 123 | 108 | 107
HPLM + 10% dialyzed FBS, 0.569 µM | 114 | 109 | 112
HPLM + 10% dialyzed FBS, 1.71 µM | 101 | 92.2 | 95.1
HPLM + 10% dialyzed FBS, 5.12 µM | 70.4 | 90 | 87.1
HPLM + 10% dialyzed FBS, 15.4 µM | 12.6 | 13.2 | 6.65
HPLM + 10% dialyzed FBS, 46.1 µM | 6.53 | 12.4 | 4.55
RPMI 5 mM glucose + 10% FBS, 0.000781 µM | 98.4 | 110 | 105
RPMI 5 mM glucose + 10% FBS, 0.00234 µM | 90.8 | 102 | 113
RPMI 5 mM glucose + 10% FBS, 0.00702 µM | 86.6 | 102 | 112
RPMI 5 mM glucose + 10% FBS, 0.0211 µM | 87.1 | 109 | 112
RPMI 5 mM glucose + 10% FBS, 0.0632 µM | 103 | 106 | 112
RPMI 5 mM glucose + 10% FBS, 0.19 µM | 89.9 | 98.9 | 110
RPMI 5 mM glucose + 10% FBS, 0.569 µM | 95.3 | 103 | 124
RPMI 5 mM glucose + 10% FBS, 1.71 µM | 81.6 | 102 | 104
RPMI 5 mM glucose + 10% FBS, 5.12 µM | 79.9 | 92.3 | 73.1
RPMI 5 mM glucose + 10% FBS, 15.4 µM | 8.16 | 8.07 | 5.81
RPMI 5 mM glucose + 10% FBS, 46.1 µM | 6.61 | 6.24 | 4.32
RPMI 5 mM glucose + 10% dialyzed FBS, 0.000781 µM | 110 | 104 | 120
RPMI 5 mM glucose + 10% dialyzed FBS, 0.00234 µM | 96.1 | 111 | 116
RPMI 5 mM glucose + 10% dialyzed FBS, 0.00702 µM | 101 | 109 | 110
RPMI 5 mM glucose + 10% dialyzed FBS, 0.0211 µM | 99.7 | 104 | 124
RPMI 5 mM glucose + 10% dialyzed FBS, 0.0632 µM | 106 | 105 | 120
RPMI 5 mM glucose + 10% dialyzed FBS, 0.19 µM | 106 | 109 | 113
RPMI 5 mM glucose + 10% dialyzed FBS, 0.569 µM | 88.6 | 105 | 114
RPMI 5 mM glucose + 10% dialyzed FBS, 1.71 µM | 89.8 | 97.5 | 96.8
RPMI 5 mM glucose + 10% dialyzed FBS, 5.12 µM | 64.9 | 93.3 | 58.2
RPMI 5 mM glucose + 10% dialyzed FBS, 15.4 µM | 7.15 | 10.6 | 6.57
RPMI 5 mM glucose + 10% dialyzed FBS, 46.1 µM | 5.77 | 7.9 | 4.36

AUC of viability dose-response curve
Details | NOMO1 [5] | P12-Ichikawa [6] | SEM cells [4]
HPLM + 10% dialyzed FBS | 391 | 407 | 400
RPMI 5 mM glucose + 10% FBS | 371 | 405 | 392
RPMI 5 mM glucose + 10% dialyzed FBS | 392 | 407 | 377
